Source: article PMC3351444, “Molecular Evolution of a Peptide GPCR Ligand Driven by Artificial Neural Networks” (PLoS ONE, 2012)
Where two headings read alike, the source gives them in different places. Square brackets hold non-standard residues; d marks the D form. Ends that are not written are not given here. Peptide text beside a SMILES is read from it.

Columns and labels:
human CMKLR1 = target: T1, human CMKLR1 (Homo sapiens, UniProt Q99788); test: Ca2+ mobilization (CellLux imaging) agonist assay in HEK293A cells expressing CMKLR1 and Gα15; assay type: cell-based
T1 construct: host or cells: HEK293A (Invitrogen), stably expressing human Gα15
T1 sequence (Q99788 1-373): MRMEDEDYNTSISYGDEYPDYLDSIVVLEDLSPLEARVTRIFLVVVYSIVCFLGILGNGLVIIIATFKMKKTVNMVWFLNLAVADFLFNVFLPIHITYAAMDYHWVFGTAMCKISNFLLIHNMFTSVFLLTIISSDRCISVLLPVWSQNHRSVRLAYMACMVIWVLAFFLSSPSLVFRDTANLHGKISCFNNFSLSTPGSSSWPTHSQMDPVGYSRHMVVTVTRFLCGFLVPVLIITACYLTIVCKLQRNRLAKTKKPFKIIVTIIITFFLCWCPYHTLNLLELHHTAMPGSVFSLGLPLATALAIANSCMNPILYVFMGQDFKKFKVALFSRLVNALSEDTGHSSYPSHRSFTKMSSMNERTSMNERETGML
In short: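 HEK293A cells co-expressing CMKLR1 and Gα15 were loaded with FLUO4-AM, and peptides were added robotically in C1 buffer (HEPES pH 7.4, 2 mM CaCl2) with 0.1% BSA. Fluorescence changes were read in duplicate wells, buffer-subtracted and normalized to background. EC50 came from amplitude–concentration plots.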

[1] = In vitro peptide stability in human serum (RP-HPLC); settings: for half-life at 50 µg/mL: human, human serum, 25% (v/v) in RPMI; for t1/2: metabolic stability in human serum
[2] = Ca2+ mobilization, CMKLR1, decimal comma
[3] = Ca2+ mobilization, CMKLR1, decimal comma, NR where no EC50 is given, read-out: EC50
[4] = intracellular calcium mobilization, HEK293 cells expressing CMKLR1, mean of three independent experiments ± SD, read-out: activity: EC50 ±SD

max response (human CMKLR1; [2]) | EC50 (human CMKLR1; [3]) | half-life at 50 µg/mL [1] | t1/2 [1] | EC50 (human CMKLR1; [4]) | Compound
1,45 DF/F0 | 38.7 nM | 480 min | – | – | CC(C)C[C@H](N)C(=O)N[C@H](Cc1c[nH]c2ccccc12)C(=O)NCC(=O)NCC(=O)N1CCC[C@H]1C(=O)N[C@@H](Cc1ccc(O)cc1)C(=O)N[C@H](Cc1c[nH]c2ccccc12)C(=O)N[C@@H](Cc1ccc(O)cc1)C(=O)N[C@H](CO)C(=O)O [compound 128] (H-L[dW]GGPY[dW]Y[dS]-OH; N-terminus assumed)
1,7 DF/F0 | 1650 nM | 16 min | – | – | FLFGFQFAY-OH [compound 109]
1,56 DF/F0 | 2190 nM | 29 min | – | – | C[C@H](NC(=O)[C@H](Cc1ccc(O)cc1)NC(=O)[C@H](CCC(N)=O)NC(=O)CNC(=O)[C@H](Cc1ccccc1)NC(=O)[C@H](Cc1ccc(O)cc1)NC(=O)[C@H](N)CS)C(=O)N[C@@H](Cc1ccccc1)C(=O)N[C@H](CO)C(=O)O [compound 113] (H-[dC]YFGQYAF[dS]-OH; N-terminus assumed)
1,49 DF/F0 | 171 nM | 2260 min | – | – | C[C@@H](NC(=O)[C@H](Cc1ccc(O)cc1)NC(=O)[C@H](CCC(N)=O)NC(=O)[C@H](N)Cc1ccccc1)C(=O)N[C@@H](CCC(N)=O)C(=O)N[C@@H](Cc1ccc(O)cc1)C(=O)N[C@H](Cc1c[nH]c2ccccc12)C(=O)N[C@@H](Cc1ccccc1)C(=O)N[C@H](CO)C(=O)O [compound 146] (H-[dF]QY[dA]QY[dW]F[dS]-OH; N-terminus assumed)
0,87 DF/F0 | 4450 nM | 26 min | – | – | C[C@H](NC(=O)[C@H](Cc1ccccc1)NC(=O)[C@H](C)NC(=O)[C@@H](N)Cc1ccccc1)C(=O)N[C@@H](Cc1ccccc1)C(=O)N[C@H](CO)C(=O)N[C@@H](Cc1ccccc1)C(=O)N[C@@H](C)C(=O)N[C@@H](Cc1ccc(O)cc1)C(=O)O [compound 117] (H-FAFAF[dS]FAY-OH; N-terminus assumed)
1,6 DF/F0 | – | – | 1408 min | – | CC(C)C[C@H](NC(=O)[C@H](N)Cc1ccc(O)cc1)C(=O)N1CCC[C@H]1C(=O)N[C@H](CO)C(=O)N[C@@H](CCC(N)=O)C(=O)N[C@@H](Cc1ccc(O)cc1)C(=O)N[C@@H](C)C(=O)N[C@@H](Cc1ccccc1)C(=O)N[C@H](CO)C(=O)O [compound 121] (H-[dY]LP[dS]QYAF[dS]-OH; N-terminus assumed)
1,02 DF/F0 | 150 nM | 40 min | – | – | CC(C)C[C@H](NC(=O)[C@H](Cc1ccc(O)cc1)NC(=O)[C@@H](Cc1ccccc1)NC(=O)[C@@H]1CCCN1C(=O)[C@H](CC(C)C)NC(=O)[C@@H](N)Cc1ccc(O)cc1)C(=O)N1CCC[C@H]1C(=O)NCC(=O)N[C@H](Cc1ccccc1)C(=O)O [compound 145] (H-YLP[dF]YLPG[dF]-OH; N-terminus assumed)
1,4 DF/F0 | 75 nM | 97 min | – | – | CC(C)C[C@H](NC(=O)[C@H](C)NC(=O)[C@H](Cc1ccc(O)cc1)NC(=O)[C@@H](Cc1ccc(O)cc1)NC(=O)CNC(=O)[C@@H]1CCCN1C(=O)[C@H](CC(C)C)NC(=O)[C@@H](N)Cc1ccc(O)cc1)C(=O)N[C@H](Cc1ccccc1)C(=O)O [compound 136] (H-YLPG[dY]YAL[dF]-OH; N-terminus assumed)
1,35 DF/F0 | 284 nM | 62 min | – | – | CC(C)C[C@H](NC(=O)[C@@H](N)Cc1ccc(O)cc1)C(=O)N1CCC[C@H]1C(=O)N[C@H](Cc1ccc(O)cc1)C(=O)N[C@H](CCC(N)=O)C(=O)N[C@@H](Cc1ccc(O)cc1)C(=O)N[C@@H](C)C(=O)N[C@@H](CCC(N)=O)C(=O)N[C@H](Cc1ccccc1)C(=O)O [compound 150] (H-YLP[dY][dQ]YAQ[dF]-OH; N-terminus assumed)
1,69 DF/F0 | 14.3 nM | 42 min | – | – | CC(C)C[C@H](NC(=O)[C@@H](N)Cc1ccc(O)cc1)C(=O)N1CCC[C@H]1C(=O)NCC(=O)N[C@@H](CCC(N)=O)C(=O)N[C@@H](Cc1ccc(O)cc1)C(=O)N[C@@H](C)C(=O)N1CCC[C@@H]1C(=O)N[C@H](Cc1ccccc1)C(=O)O [compound 125] (H-YLPGQYA[dP][dF]-OH; N-terminus assumed)
1,49 DF/F0 | 105 nM | 612 min | – | – | CC(C)C[C@@H](NC(=O)[C@H](Cc1c[nH]cn1)NC(=O)[C@H](N)CO)C(=O)NCC(=O)N[C@@H](CCC(N)=O)C(=O)N[C@@H](Cc1ccc(O)cc1)C(=O)N[C@@H](C)C(=O)N[C@@H](Cc1ccccc1)C(=O)N[C@H](Cc1ccccc1)C(=O)O [compound 140] (H-[dS]H[dL]GQYAF[dF]-OH; N-terminus assumed)
– | – | 1410 ± 85 min | – | 2.9 ± 1.34 nM | CC(C)C[C@H](NC(=O)[C@H](N)Cc1ccc(O)cc1)C(=O)N1CCC[C@H]1C(=O)N[C@H](CO)C(=O)N[C@@H](CCC(N)=O)C(=O)N[C@@H](Cc1ccc(O)cc1)C(=O)N[C@@H](C)C(=O)N[C@@H](Cc1ccccc1)C(=O)N[C@H](CO)C(=O)O [yLPsQYAFs] (H-[dY]LP[dS]QYAF[dS]-OH; N-terminus assumed)
1,82 DF/F0 | 55.7 nM | 117 min | – | – | CC(C)C[C@H](NC(=O)CN)C(=O)N[C@@H](CCC(N)=O)C(=O)N[C@H](CCC(N)=O)C(=O)N[C@@H](Cc1ccccc1)C(=O)N[C@@H](Cc1ccc(O)cc1)C(=O)N[C@H](Cc1c[nH]c2ccccc12)C(=O)NCC(=O)N[C@H](Cc1ccccc1)C(=O)O [compound 132] (H-GLQ[dQ]FY[dW]G[dF]-OH; N-terminus assumed)

The next lines start with the compound.

Compound | max response (human CMKLR1; [2]) | EC50 (human CMKLR1; [3]) | half-life at 50 µg/mL [1] | t1/2 [1] | EC50 (human CMKLR1; [4])
CC(C)C[C@H](NC(=O)[C@@H](N)Cc1ccc(O)cc1)C(=O)N1CCC[C@H]1C(=O)NCC(=O)N[C@@H](CCC(N)=O)C(=O)N[C@@H](Cc1ccccc1)C(=O)N[C@H](Cc1ccc(O)cc1)C(=O)N[C@@H](Cc1ccccc1)C(=O)N[C@@H](CO)C(=O)O [compound 57] (H-YLPGQF[dY]FS-OH; N-terminus assumed) | 0,89 DF/F0 | 119 nM | 26 min | – | –
C[C@H](NC(=O)[C@H](Cc1ccc(O)cc1)NC(=O)[C@H](CCC(N)=O)NC(=O)CNC(=O)[C@@H]1CCCN1C(=O)[C@H](CCCNC(=N)N)NC(=O)[C@@H](N)Cc1ccc(O)cc1)C(=O)N[C@@H](Cc1ccccc1)C(=O)N[C@H](CO)C(=O)O [compound 84] (H-YRPGQYAF[dS]-OH; N-terminus assumed) | 1,84 DF/F0 | – | – | 21 min | –
CC(C)C[C@H](NC(=O)[C@@H](N)Cc1ccc(O)cc1)C(=O)N1CCC[C@H]1C(=O)NCC(=O)N[C@@H](CCC(N)=O)C(=O)N[C@@H](Cc1ccccc1)C(=O)N[C@@H](C)C(=O)N[C@H](Cc1ccccc1)C(=O)N[C@@H](Cc1ccccc1)C(=O)O [compound 42] (H-YLPGQFA[dF]F-OH; N-terminus assumed) | 1,07 DF/F0 | 8.93 nM | 30 min | – | –
YLPGQYAFL-OH [compound 38] | 1,05 DF/F0 | – | – | 27 min | –
FLPGQPYFL-OH [compound 65] | 0,91 DF/F0 | 713 nM | 32 min | – | –
FLPGQYAFS-OH | – | – | 28 ± 1 min | – | 2.75 ± 0.14 nM
C[C@H](N)C(=O)N[C@@H](Cc1ccccc1)C(=O)N[C@H](CO)C(=O)N[C@@H](CCC(N)=O)C(=O)N[C@@H](Cc1ccccc1)C(=O)N[C@H](CO)C(=O)N[C@@H](C)C(=O)N[C@@H](Cc1ccccc1)C(=O)N[C@H](CO)C(=O)O [compound 106] (H-AF[dS]QF[dS]AF[dS]-OH; N-terminus assumed) | 1,53 DF/F0 | 697 nM | 110 min | – | –
YPPGQYAFF-OH [compound 68] | 0,94 DF/F0 | 1480 nM | 54 min | – | –
CC(C)[C@H](N)C(=O)N1CCC[C@H]1C(=O)NCC(=O)N[C@@H](CCC(N)=O)C(=O)N[C@@H](Cc1ccc(O)cc1)C(=O)N[C@@H](C)C(=O)N[C@@H](Cc1ccccc1)C(=O)N[C@H](CO)C(=O)N[C@H](CO)C(=O)O [compound 99] (H-VPGQYAF[dS][dS]-OH; N-terminus assumed) | 1,7 DF/F0 | 129 nM | 43 min | – | –
FLPGQFLPG-OH [compound 63] | 0,81 DF/F0 | 554 nM | 46 min | – | –
CC(C)C[C@H](NC(=O)[C@@H](N)Cc1ccc(O)cc1)C(=O)N1CCC[C@H]1C(=O)N[C@H](C)C(=O)N[C@@H](CCC(N)=O)C(=O)N[C@@H](Cc1ccc(O)cc1)C(=O)N[C@@H](C)C(=O)N[C@@H](Cc1ccccc1)C(=O)N[C@H](CO)C(=O)O [YLPaQYAFs] (H-YLP[dA]QYAF[dS]-OH; N-terminus assumed) | – | – | 110 ± 26 min | – | 4.42 ± 3.41 nM
LLPGLFLKL-OH [compound 74] | 0,85 DF/F0 | 5120 nM | 39 min | – | –
CC(C)C[C@H](NC(=O)[C@@H]1CCCN1)C(=O)N1CCC[C@H]1C(=O)NCC(=O)N[C@@H](CCC(N)=O)C(=O)N[C@H](Cc1ccccc1)C(=O)N[C@@H](C)C(=O)N[C@@H](Cc1ccccc1)C(=O)N[C@@H](Cc1ccccc1)C(=O)O [compound 58] (H-PLPGQ[dF]AFF-OH; N-terminus assumed) | 0,81 DF/F0 | 286 nM | 33 min | – | –
